Reference: patent US20040219602A1, “Evaluating effects of exposure conditions on drug samples over time” (Symyx Technologies, Inc., priority 2003, published 2004)

Key:
Assay type in all cases: physicochemical
[1] = Fluorescence emission of solid drug samples exposed to 80° C. (thermal stability); conditions: oven at 80° C., 15 and 41 hours vs unexposed, Renishaw Raman Spectrometer
Method: In the following examples, drug candidate stability is evaluated using non-destructive tests to track any change in property over time while exposed to a condition. Fluorescence, Raman, powder X-ray diffraction, near-IR, mid-IR, UV-Vis absorbance, and colorimetry are used. A change in the peak intensity for these tests is measured for the samples before exposure and during exposure.
Two 20 ml vials containing approximately 10 mg each of Amoxicillin, two 20 ml vials containing approximately 10 mg each of Ampicillin trihydrate and two 20 ml vials containing approximately 10 mg each of Caphalexin hydrate were prepared and placed in an oven at 80° C. One vial of each compound was removed from the oven after 15 hours of exposure, and the other vial of each compound was removed from the oven after 41 hours. Approximately 2 mg samples from each of the vials were placed in discreet regions of a Universal ⋄ Substrate™. Approximately 2 mg of unexposed Amoxicillan, Ampicillin trihydrate and Cephalexil hydrate were also placed in discreet regions of the Universal ⋄ Substrate™. The Raman scattering response and the fluorescence emission response of the samples were measured using a Renishaw Raman Spectrometer.

[2] = Powder X-ray diffraction of exposed and unexposed drug sample (thermal stability, crystallinity); conditions: solid, oven 216 hours at 100 C vs unexposed
Method: Approximately 2 mg of Amoxicillin was placed on a Universal ⋄ Substrate™ and exposed in an oven for 216 hours at 100 C. After the sample was removed from the oven, approximately 2 mg of unexposed sample was also on the placed on the Universal ⋄ Substrate™. The X-ray powder diffraction (XRD) patterns for the exposed and unexposed samples were collected on a Bruker D-8 C2 X-ray diffractometer.

[3] = FT-Raman of solid drug samples exposed to 80° C. (thermal stability); conditions: heated for 216 hours at 80° C. vs unexposed
Excerpt: The change in FT-Raman signal is used to measure the rate of drug decomposition and the chemical stability of the drug candidate.

| SMILES | amplitude of the fluorescence emission as a function of heating time [1] | crystallinity (powder diffraction intensity) after exposure [2] | change of FT-Raman spectrum after heating [3] |
| --- | --- | --- | --- |
| CC1(C)S[C@@H]2[C@H](NC(=O)[C@H](N)c3ccc(O)cc3)C(=O)N2[C@H]1C(=O)O [Amoxicillin] | increased significantly | almost completely lost | changes significantly |
| CC1(C)S[C@@H]2[C@H](NC(=O)[C@H](N)c3ccccc3)C(=O)N2[C@H]1C(=O)O [Ampicillin trihydrate] | increased significantly |  |  |
| CC1=C(C(=O)O)N2C(=O)[C@@H](NC(=O)[C@H](N)c3ccccc3)[C@H]2SC1 [Cephalexin hydrate] | increased significantly |  |  |
